According to a melting point compilation (Tetko et al.; mined from patent text by program, amines drawn as free bases though some values may be those of a salt):

First: Cc1ccc(C)n1-c1c(SC(F)(F)F)c(C#N)nn1-c1c(Cl)cc(C(F)(F)F)cc1Cl
Second: N#Cc1cnn2c1N(C(=O)CN1CCN(C(=O)Nc3cccc(Cl)c3)CC1)CC=C2c1cccc(C(F)(F)F)c1
The melting point of the first is lower: 142 to 144 °C for the first, 182 to 185 °C for the second.

Compared with `COc1ccc(NC(C)CC(=O)NC(=O)OC(C)(C)C)cc1` (stereo unspecified), `CNS(=O)(=O)c1ccc(Oc2ccc(NC(C)=O)cc2)cc1` is higher in melting point: 70 to 71 °C for the first, 183 to 184 °C for the second.

First: CCCCCCCCCCCCCCOc1ccc(CN)cc1
Second: COC[C@@H]1CN(c2ccc(OCc3ccccc3)cc2)C(=O)O1
The melting point of the first is lower: 62 to 64 °C for the first, 101 °C for the second.

First: N#CC1CN1C(=O)NC(=O)c1cc2ccccc2o1 (stereo unspecified)
Second: CCOC(=O)CC1SC2=Nc3ccccc3CN2C1=O (stereo unspecified)
The melting point of the first is higher: 190 to 192 °C for the first, 130 to 142 °C for the second.

First: COc1c(C(C)(C)C)cc(N2CCCC2=O)cc1C(C)(C)C
Second: O=C(O)c1cn(C2CC2)c2cc(N3CCC3)c(F)cc2c1=O
The melting point of the first is lower: 90 to 91 °C for the first, 291 to 294 °C for the second.

Compared with `CC(=O)Oc1cc(C)cc(C(=O)O)c1C`, `O=C(O)c1cc2cc(F)c(F)cc2nc1Cl` is higher in melting point: 153 to 154 °C for the first, 232 °C for the second.

Compared with `Cc1cc(CCCCCOc2c(Cl)cc(-c3nnn[nH]3)cc2Cl)on1`, `CCOC(=O)COc1cc(Cl)c2c(=O)c(-c3ccc(OC)cc3)coc2c1` is lower in melting point: 122 to 123 °C for the first, 121 to 122 °C for the second.

First: Cc1oc(-c2ccccc2)nc1COc1ccc2c(-c3ccccc3)c(COc3nn(-c4ccccc4)cc3CO)oc2c1
Second: COc1ccc(-n2ncc(-c3ccc(C=Cc4ccc(-c5nc6ccccc6o5)cc4)cc3)n2)cc1
The melting point of the first is lower: 118 to 119 °C for the first, 255 °C for the second.

Compared with `CSc1sc(C(=O)O)c2c1-c1sc(-c3ccccc3)cc1CC2`, `O=C(O)C(O)CSc1ccc(-c2ccccc2)cc1` (stereo unspecified) is lower in melting point: 215 to 217 °C for the first, 176 °C for the second.

First: CSc1ccccc1CNC(=O)c1ccc2cnccc2n1
Second: Cc1ccccc1NC(=O)c1c(Cl)cccc1Cl
The melting point of the first is lower: 102 to 103 °C for the first, 182 °C for the second.

Compared with `COC1=CCC(N)(O)C=C1` (stereo unspecified), `Cn1nc(-c2cccs2)n(C)c1=S` is lower in melting point: 138 to 140 °C for the first, 128 to 129 °C for the second.

First: CCOc1ccc(F)cc1C(=O)c1sc2nc(C)c(C)cc2c1N
Second: CCOc1cc(C(CC#N)N2C(=O)c3cccc(N)c3C2=O)ccc1OC (stereo unspecified)
The melting point of the first is lower: 170 °C for the first, 171 to 172 °C for the second.

First: O=C(CNC(=O)c1nc2cccc(OC(F)(F)F)c2cc1OCc1ccccc1)OCc1ccccc1
Second: O=[N+]([O-])c1ccc(OCc2ccccc2)c(C(F)(F)F)c1
The melting point of the first is higher: 123 to 124 °C for the first, 112 to 114 °C for the second.

Compared with `CNc1cccc(-c2ccc3c(C(N)=O)nn(-c4ccc(S(N)(=O)=O)cc4)c3c2)c1`, `CC(C)(C)C1c2ccccc2-c2cc(Br)ccc2N1S(=O)(=O)c1ccc(O)cc1` (stereo unspecified) is higher in melting point: 159 to 160 °C for the first, 245 to 247 °C for the second.

First: COCc1cc(NC(=O)OC)no1
Second: CC(C)c1ccc2c(c1)OC1(O)c3ccccc3C(=O)C21O (stereo unspecified)
The melting point of the first is lower: 90 to 91 °C for the first, 195 to 198 °C for the second.

Compared with `CCOC(=O)c1cn(CCc2ccccc2)c2occc2c1=O`, `CCc1nn2c(N)cc(N3CCN(C)CC3)nc2c1S(=O)(=O)c1ccccc1` is higher in melting point: 139 to 140 °C for the first, > 250 °C for the second.

First: N#CC(OC1OC2C(Br)C3CC1C2C3)c1cccc(Oc2ccccc2)c1 (stereo unspecified)
Second: O=C(O)c1cc(Oc2ccc(Br)cc2)cc(C(=O)O)c1
The melting point of the first is lower: 65 °C for the first, 310 to 320 °C for the second.

First: CC(=O)O[C@H]1CC[C@H](c2ccc(C#N)cc2)CC1
Second: CC(O)(c1ccc(C#N)cc1)c1cncs1 (stereo unspecified)
The melting point of the first is lower: 130 to 131 °C for the first, 162 to 164 °C for the second.

First: O=c1[nH]cnc2cc(Cl)sc12
Second: CCN1CCC(c2c[nH]c3ccc(NC(=N)c4cccs4)cc23)CC1
The melting point of the first is higher: 238 to 239 °C for the first, 150 to 152 °C for the second.

First: CN1CCC(c2c[nH]c(-c3ccc(F)cc3)c2-c2ccncc2)=CC1Cc1ccccc1 (stereo unspecified)
Second: Nc1ccccc1Sc1cccc2c1C(=O)c1cccc(Sc3ccccc3N)c1C2=O
The melting point of the first is lower: 198 to 200 °C for the first, 283 to 284 °C for the second.

Compound `CNc1cc(-n2cc(C(=O)O)c(=O)c3cc(F)c(F)c(C)c32)c(F)cc1F` has a melting point of 238 °C.
